Assay results: PubChem BioAssay (NCI)
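Five concentrations, 48 hours, 96-well plates. The concentration for full growth arrest is given as TGI.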

Columns and labels:
Experiment in all cases: NCI anticancer screen, dose series, 48 h
[1] = system: MOLT-4 leukemia
[2] = system: ACHN renal
[3] = system: NCI-H226 lung
[4] = system: COLO 205 colon
[5] = system: NCI-H522 lung
[6] = system: SK-MEL-5 melanoma
[7] = system: UACC-257 melanoma
[8] = system: DMS 114 small cell lung
[9] = system: OVCAR-8 ovarian
[10] = system: SNB-78 CNS
[11] = system: K-562 leukemia
[12] = system: RPMI-8226 leukemia
[13] = system: OVCAR-4 ovarian
[14] = system: A549 NSCLC
[15] = system: SW-620 colon
[16] = system: HT29 colon
[17] = system: HCT-15 colon
[18] = system: NCI-H23 lung
[19] = system: 786-0 renal
[20] = system: HOP-62 NSCLC
[21] = system: M14 melanoma
[22] = system: XF 498 CNS
[23] = system: LXFL 529 NSCLC
[24] = system: CCRF-CEM leukemia
[25] = system: SNB-19 CNS
[26] = system: SNB-75 CNS
[27] = system: KM20L2 colon
[28] = system: RXF-631 renal
[29] = system: SF-295 CNS
[30] = system: KM12 colon
[31] = system: SF-268 CNS
[32] = system: IGROV1 ovarian
[33] = system: M19-MEL melanoma
[34] = system: OVCAR-5 ovarian
[35] = system: OVCAR-3 ovarian
[36] = system: SF-539 CNS
[37] = system: SK-OV-3 ovarian
[38] = system: SR leukemia
[39] = system: U251 CNS
[40] = system: SK-MEL-2 melanoma
[41] = system: TK-10 renal
[42] = system: SN12C renal
[43] = system: A498 renal
[44] = system: MALME-3M melanoma
[45] = system: HCT-116 colon
[46] = system: CAKI-1 renal
[47] = system: UACC-62 melanoma
[48] = system: HOP-92 NSCLC
[49] = system: UO-31 renal
[50] = system: HCC-2998 colon
[51] = system: NCI-H460 lung
[52] = system: DMS 273 small cell lung
[53] = system: EKVX NSCLC
[54] = system: RXF 393 renal
[55] = system: HOP-18 NSCLC
[56] = system: HL-60(TB) leukemia
[57] = system: DLD-1 colon
[58] = system: LOX IMVI melanoma

For `Cn1cnc2[nH]c(=O)[nH]c(=S)c21`, the TGI [1] was > 100 µM, the TGI [2] was > 100 µM and the TGI [3] was > 100 µM. For the same molecule, the TGI [4] was > 100 µM, the TGI [5] was > 100 µM and the TGI [6] was > 100 µM. The TGI [7] was > 100 µM, the TGI [8] was > 100 µM and the TGI [9] was > 100 µM. For the same molecule, the TGI [10] was > 100 µM, the TGI [11] was > 100 µM and the TGI [12] was > 100 µM. For the same molecule, the TGI [13] was > 100 µM, the TGI [14] was > 100 µM and the TGI [15] was > 100 µM. The TGI [16] was > 100 µM, the TGI [17] was > 100 µM and the TGI [18] was > 100 µM. For the same molecule, the TGI [19] was > 100 µM, the TGI [20] was > 100 µM and the TGI [21] was > 100 µM. The TGI [22] was > 100 µM, the TGI [23] was > 100 µM and the TGI [24] was > 100 µM. The TGI [25] was > 100 µM, the TGI [26] was > 100 µM and the TGI [27] was > 100 µM. For the same molecule, the TGI [28] was > 100 µM, the TGI [29] was > 100 µM and the TGI [30] was > 100 µM. The TGI [31] was > 100 µM, the TGI [32] was > 100 µM and the TGI [33] was > 100 µM. The TGI [34] was > 100 µM, the TGI [35] was > 100 µM and the TGI [36] was > 100 µM. The TGI [37] was > 100 µM, the TGI [38] was > 100 µM and the TGI [39] was > 100 µM. The TGI [40] was > 100 µM, the TGI [41] was > 100 µM and the TGI [42] was > 100 µM. For the same molecule, the TGI [43] was > 100 µM, the TGI [44] was > 100 µM and the TGI [45] was > 100 µM. The TGI [46] was > 100 µM, the TGI [47] was > 100 µM and the TGI [48] was > 100 µM. For the same molecule, the TGI [49] was > 100 µM, the TGI [50] was > 100 µM and the TGI [51] was > 100 µM. For the same molecule, the TGI [52] was > 100 µM, the TGI [53] was > 100 µM and the TGI [54] was > 100 µM. The TGI [55] was > 100 µM, the TGI [56] was > 100 µM and the TGI [57] was > 100 µM.

For `COC(=O)c1cc2cc(OC)c(OC)cc2cc(C(=O)OC)c1=O`, the TGI [1] was > 100 µM, the TGI [2] was > 100 µM and the TGI [4] was > 100 µM. The TGI [5] was > 100 µM, the TGI [6] was > 100 µM and the TGI [7] was > 100 µM. The TGI [8] was > 100 µM, the TGI [9] was > 100 µM and the TGI [10] was > 100 µM. The TGI [11] was > 100 µM, the TGI [12] was > 100 µM and the TGI [13] was > 100 µM. The TGI [14] was > 100 µM, the TGI [15] was > 100 µM and the TGI [16] was > 100 µM. The TGI [17] was > 100 µM, the TGI [18] was > 100 µM and the TGI [19] was > 100 µM. The TGI [20] was > 100 µM, the TGI [21] was > 100 µM and the TGI [22] was > 100 µM. For the same molecule, the TGI [23] was > 100 µM, the TGI [24] was > 100 µM and the TGI [25] was > 100 µM. The TGI [26] was > 100 µM, the TGI [27] was > 100 µM and the TGI [28] was > 100 µM. For the same molecule, the TGI [29] was > 100 µM, the TGI [30] was > 100 µM and the TGI [31] was > 100 µM. The TGI [32] was > 100 µM, the TGI [33] was > 100 µM and the TGI [34] was > 100 µM. The TGI [35] was > 100 µM, the TGI [36] was > 100 µM and the TGI [37] was > 100 µM. The TGI [39] was > 100 µM, the TGI [40] was > 100 µM and the TGI [41] was > 100 µM. The TGI [42] was > 100 µM, the TGI [58] was > 100 µM and the TGI [43] was > 100 µM. The TGI [44] was > 100 µM, the TGI [45] was > 100 µM and the TGI [46] was > 100 µM. For the same molecule, the TGI [47] was > 100 µM, the TGI [48] was > 100 µM and the TGI [49] was > 100 µM. The TGI [50] was > 100 µM, the TGI [51] was > 100 µM and the TGI [52] was > 100 µM. For the same molecule, the TGI [53] was > 100 µM, the TGI [54] was > 100 µM and the TGI [55] was > 100 µM. For the same molecule, the TGI [56] was > 100 µM and the TGI [57] was > 100 µM.

For `COc1ccc(C(=O)Cc2ccc(Cl)cc2)cc1OC`, the TGI [1] was > 100 µM, the TGI [2] was > 100 µM and the TGI [3] was > 100 µM. For the same molecule, the TGI [5] was > 100 µM, the TGI [6] was > 100 µM and the TGI [7] was > 100 µM. For the same molecule, the TGI [8] was > 100 µM, the TGI [9] was > 100 µM and the TGI [10] was > 100 µM. For the same molecule, the TGI [11] was > 100 µM, the TGI [12] was > 100 µM and the TGI [13] was > 100 µM. For the same molecule, the TGI [14] was > 100 µM, the TGI [15] was > 100 µM and the TGI [16] was > 100 µM. The TGI [17] was > 100 µM, the TGI [18] was > 100 µM and the TGI [20] was > 100 µM. The TGI [21] was > 100 µM, the TGI [22] was > 100 µM and the TGI [23] was > 100 µM. For the same molecule, the TGI [24] was > 100 µM, the TGI [25] was > 100 µM and the TGI [26] was 86.9 µM. The TGI [27] was > 100 µM, the TGI [28] was > 100 µM and the TGI [29] was > 100 µM. The TGI [31] was > 100 µM, the TGI [32] was > 100 µM and the TGI [33] was > 100 µM. The TGI [34] was > 100 µM, the TGI [35] was > 100 µM and the TGI [36] was > 100 µM. The TGI [37] was > 100 µM, the TGI [38] was > 100 µM and the TGI [39] was > 100 µM. The TGI [40] was > 100 µM, the TGI [41] was > 100 µM and the TGI [42] was > 100 µM. The TGI [58] was > 100 µM, the TGI [43] was > 100 µM and the TGI [44] was > 100 µM. For the same molecule, the TGI [45] was > 100 µM, the TGI [46] was > 100 µM and the TGI [47] was > 100 µM. For the same molecule, the TGI [49] was > 100 µM, the TGI [50] was > 100 µM and the TGI [51] was > 100 µM. The TGI [52] was > 100 µM, the TGI [53] was > 100 µM and the TGI [54] was > 100 µM. For the same molecule, the TGI [55] was > 100 µM, the TGI [56] was > 100 µM and the TGI [57] was > 100 µM.
